Test system: CCI molded SD rats
Assay: Rat CCI-induced nociception sensitization model, mechanical pain threshold
Type: in vivo
Details: single oral administration; for mechanical pain threshold: FIGS. 2 and 3
Method: 3. Rat CCI-Induced Nociception Sensitization Model
SD rats of 160-180 g were purchased from Charles River (Beijing) with a license number of sCXK (Beijing)-2012-001 and a qualification number of 11400700254251. The surgery was performed to establish the CCI model as follows: the animals ware first anesthetized, then the left posterior sciatic nerve was exposed. A 2 mm long PE-90 catheter was applied to the middle site of the sciatic nerve. Finally the muscle and skin were sutured. Adaptation of the animal's left hind limb at 15g was carried out from day 10 after the surgery, three times a week.
The baseline testing was performed 17 days after surgery (starting from 2g at the time of testing, with an upper limit of 8g and a lower limit of 1g which is the −24h point), with a pain threshold of 1-4g as a grouping criterion. Grouping was done according to baseline test results, with 10 animals per group. The animals in the group were fasted but given water overnight. On the second day, mechanical pain values were tested at 2 h, 4 h and 6 h after oral/intragastric administration. The test started at 8 g, with an upper limit of 15g and a lower limit of 1g.
The data were processed according to equation (1) to calculate the PWT 50% value, where Xf is the log value of the final test fibers used in the test, k is a table value (Chaplan et al., 1994), and δ is the mean difference (here 0.224). PWT50%(g)=(10[Xf+kδ])/10000 [equation (1)]
The data were expressed in a form of mean±standard deviation (X±s) and were statistically analyzed using one-way ANOVA and Dunnett's t test (Graphpad prism 6.01).

## CC(C)C[C@H](CN)CC(=O)O [pregabalin]
  effective dose: 10 mg/kg
  mechanical pain threshold: significantly increased

## NC[C@@]1(CC(=O)O)[C@@H]2CC[C@H]3C[C@@H]2[C@@H]1C3.O=S(=O)(O)c1ccccc1 [Compound 1]
  effective dose: 3 mg/kg
  mechanical pain threshold: significantly increased

Source: patent US12226381B2, “Composition of fused tricyclic gamma-amino acid derivatives and the preparation thereof” (SICHUAN HAISCO PHARMACEUTICAL CO., LTD., priority 2018, dated 2025)
